For 24 compounds, zone of inhibition, MIC and ED50 results are on record in ChEMBL document CHEMBL4393657, “Tetrazole hybrids and their antifungal activities” (2019).

In brackets after ≈: the same amount, converted by molar mass.

Holding throughout (assay type): functional
In test [1] the test system is Candida albicans. Kind of test: Antifungal activity against Candida albicans assessed as inhibition zone at 125 ug/ml by disk diffusion method. As to conditions: read-out: IZ. A general note: Agar diffusion results depend on both activity and mobility in agar.
Test [2] deals with Aspergillus flavus. Kind of test: Antifungal activity against Aspergillus flavus.
The test system of test [3] is Candida albicans. Kind of test: Antifungal activity against Candida albicans.
In test [4] the test system is Aspergillus niger. Kind of test: Antifungal activity against Aspergillus niger.
The subject of a further test is Mucor indicus. Nature of the test: Antifungal activity against Mucor indicus.
For another test, the system named is Rhizopus arrhizus. Kind of test: Antifungal activity against Rhizopus arrhizus.
Test [5] has as its system Candida albicans. Nature of the test: Antifungal activity against Candida albicans NCCS 3471 assessed as inhibition zone at 500 ug/ml by disk diffusion method. The conditions noted are these: read-out: IZ.
Test [6] relates to Aspergillus niger. Kind of test: Antifungal activity against Aspergillus niger NCCS 1196 assessed as inhibition zone at 500 ug/ml by disk diffusion method. The conditions noted are these: read-out: IZ.
Test [7] deals with Candida albicans. Nature of the test: Antifungal activity against Candida albicans ATCC 885653 assessed as inhibition zone at 100 ug/ml incubated for 48 to 72 hrs by agar-diffusion method. As to conditions: read-out: IZ.
The test system of test [8] is Aspergillus flavus. Kind of test: Antifungal activity against Aspergillus flavus assessed as inhibition zone at 25 ug/ml by disk diffusion method. The conditions noted are these: read-out: IZ.
For a further test, the system named is Aspergillus fumigatus. Kind of test: Antifungal activity against Aspergillus fumigatus assessed as inhibition zone at 25 ug/ml by disk diffusion method. The conditions noted are these: read-out: IZ.
For test [9], the system named is Aspergillus niger. Nature of the test: Antifungal activity against Aspergillus niger assessed as inhibition zone at 25 ug/ml by disk diffusion method. As to conditions: read-out: IZ.
Test [10] concerns Candida albicans. Kind of test: Antifungal activity against Candida albicans assessed as inhibition zone at 25 ug/ml by disk diffusion method. The conditions noted are these: read-out: IZ.
For test [11], the system named is Candida albicans. Kind of test: Antifungal activity against Candida albicans assessed as reduction in fungal cell growth incubated for 48 hrs by broth microdilution susceptibility method. (In broth dilution the organism is exposed to a series of concentrations in liquid medium.)
The subject of test [12] is Aspergillus niger. Nature of the test: Antifungal activity against Aspergillus niger assessed as reduction in fungal cell growth incubated for 48 hrs by broth microdilution susceptibility method.
Test [13] has as its system Candida albicans. Kind of test: Antifungal activity against Candida albicans assessed as reduction in fungal cell growth incubated for 24 hrs by broth microdilution method.
Test [14] has as its system Candida albicans. Nature of the test: Antifungal activity against Candida albicans TA.
Test [15] concerns Candida albicans. Kind of test: In vivo antifungal activity against Candida albicans TA infected in CDF-1 mouse dosed orally assessed as survival of mouse. The conditions noted are these: po.

What is called MIC is the lowest concentration found to suppress growth. The term ED50 denotes the dose that gives a 50% effect, or the effect in half of the subjects.

Take `Cc1ccc(/N=C/c2cc3cc(-c4nc5ccccc5[nH]4)ccc3n3nnnc23)cc1`: the zone of inhibition at 125 µg/mL in the test on Candida albicans [1] lay within 7 to 12 mm.
`O=C(O)c1cn(C2CC2)c2nc(N3CCN(CC(=O)c4nnnn4-c4ccc(Br)cc4)CC3)c(F)cc2c1=O`: the MIC in the test with Aspergillus flavus [2], in the test with Candida albicans [3], in the test with Aspergillus niger [4], against Mucor indicus and in the test with Rhizopus arrhizus was 6.25 to 100 µg/mL (≈ 10.5 to 167 µM) in each case.
Turning to `CC(=O)N1N=C(Cn2cc(-c3nn(-c4ccncc4)cc3-c3nnnn3-c3ccc(C(F)(F)F)cc3)c3cc(Cl)ccc32)OC1(C)c1ccc(C)cc1` (stereo not given), the zone of inhibition at 500 µg/mL in the test with Candida albicans [5] and in the test on Aspergillus niger [6] was 11 to 20 mm in each case.
For the compound `CC(C)NCCSc1nc2ccccc2c2nnnn12`, in the test on Candida albicans [7], the zone of inhibition at 100 µg/mL lay in the range of 6 to 22 mm.
Regarding `COc1ccc(-n2nnnc2C(=O)CN2CCN(c3nc4c(cc3F)c(=O)c(C(=O)O)cn4C3CC3)CC2)cc1`, the MIC in the test with Aspergillus flavus [2], against Candida albicans [3], against Aspergillus niger [4], in the test on Mucor indicus and with Rhizopus arrhizus was 6.25 to 100 µg/mL (≈ 11.4 to 182 µM) throughout.
`Cc1ccccc1OCc1cn(Cc2ccc(-c3ccccc3-c3nnn[nH]3)cc2)nn1`: the zone of inhibition at 25 µg/mL in the test on Aspergillus flavus [8], in the test with Aspergillus fumigatus, with Aspergillus niger [9] and with Candida albicans [10] was 11 to 18 mm in each case.
For `O=C(O)c1cn(C2CC2)c2nc(N3CCN(CC(=O)c4nnnn4-c4ccccc4)CC3)c(F)cc2c1=O`, the MIC with Aspergillus flavus [2], in the test with Candida albicans [3], with Aspergillus niger [4], in the test on Mucor indicus and against Rhizopus arrhizus was 6.25 to 100 µg/mL (≈ 12.1 to 193 µM) throughout.
As to `Clc1ccccc1OCc1cn(Cc2ccc(-c3ccccc3-c3nnn[nH]3)cc2)nn1`, the zone of inhibition at 25 µg/mL in the test with Aspergillus flavus [8], in the test on Aspergillus fumigatus, in the test on Aspergillus niger [9] and with Candida albicans [10] was 11 to 18 mm throughout.
As to `COc1ccc(-c2nn[se]c2-n2nnc(-c3ccc(Cl)cc3)n2)cc1`, the MIC with Candida albicans [11] and in the test with Aspergillus niger [12] was 100 to 400 µg/mL (≈ 239 to 958 µM) in each case.
On to `O=C(O)c1cn(C2CC2)c2nc(N3CCN(CC(=O)c4nnnn4-c4ccc(F)cc4)CC3)c(F)cc2c1=O`, for which the MIC was 6.25 to 100 µg/mL (≈ 11.6 to 186 µM) with Aspergillus flavus [2]; 6.25 to 100 µg/mL (≈ 11.6 to 186 µM) in the test with Candida albicans [3]; 6.25 µg/mL (≈ 11.6 µM) in the test on Aspergillus niger [4]; 6.25 to 100 µg/mL (≈ 11.6 to 186 µM) with Mucor indicus; 6.25 to 100 µg/mL (≈ 11.6 to 186 µM) against Rhizopus arrhizus.
For the compound `Cc1cccc(OCc2cn(Cc3ccc(-c4ccccc4-c4nnn[nH]4)cc3)nn2)c1`, the zone of inhibition at 25 µg/mL in the test with Aspergillus flavus [8], in the test with Aspergillus fumigatus, with Aspergillus niger [9] and with Candida albicans [10] was 11 to 18 mm in each case.
With `O=[N+]([O-])c1ccc(/N=C/c2cc3cc(-c4nc5ccccc5[nH]4)ccc3n3nnnc23)cc1`, the zone of inhibition at 125 µg/mL in the test on Candida albicans [1] fell in the range of 7 to 12 mm.
On to `O=C(CSc1nc2ccccc2c2nnnn12)c1ccccc1`, for which the zone of inhibition at 100 µg/mL in the test on Candida albicans [7] fell in the range of 6 to 22 mm.
For `FC(F)(F)c1cc(-c2ccc(Br)cc2)nc2nnnn12`, in the test with Candida albicans [13], the MIC was 62.5 µg/mL (≈ 182 µM).
In the case of `Clc1ccc(OCc2cn(Cc3ccc(-c4ccccc4-c4nnn[nH]4)cc3)nn2)cc1`, the zone of inhibition at 25 µg/mL with Aspergillus flavus [8], in the test on Aspergillus fumigatus, with Aspergillus niger [9] and in the test on Candida albicans [10] was 11 to 18 mm throughout.
`COc1ccc(C2(C)OC(Cn3cc(-c4nn(-c5ccncc5)cc4-c4nnnn4-c4ccc(C(F)(F)F)cc4)c4cc(Cl)ccc43)=NN2C(C)=O)cc1` (stereo not given): the zone of inhibition at 500 µg/mL in the test with Candida albicans [5] and in the test with Aspergillus niger [6] was 11 to 20 mm throughout.
`Cc1ccc(OCc2cn(Cc3ccc(-c4ccccc4-c4nnn[nH]4)cc3)nn2)cc1`: the zone of inhibition at 25 µg/mL in the test on Aspergillus flavus [8], with Aspergillus fumigatus, in the test with Aspergillus niger [9] and with Candida albicans [10] was 11 to 18 mm each time.
On to `Oc1ccc(/N=C/c2cc3cc(-c4nc5ccccc5[nH]4)ccc3n3nnnc23)cc1`, for which, in the test with Candida albicans [1], the zone of inhibition at 125 µg/mL was 7 to 12 mm.
In the case of `COc1ccc(-c2nn[se]c2-n2nnc(-c3ccccc3Cl)n2)cc1`, the MIC in the test with Candida albicans [11] and in the test with Aspergillus niger [12] was 100 to 400 µg/mL (≈ 239 to 958 µM) each time.
As to `Clc1ccc(-c2nn[se]c2-n2nnc(-c3ccccc3Cl)n2)cc1`, the MIC in the test on Candida albicans [11] and in the test with Aspergillus niger [12] was 6.25 µg/mL (≈ 14.8 µM) in each case.
As to `C[C@@H](n1cnnn1)[C@](O)(Cn1cncn1)c1ccccc1F`, in the test with Candida albicans [14], the MIC lay in the range of 12.5 to 100 µg/mL (≈ 41.2 to 330 µM). In addition, in the test on Candida albicans [15], the ED50 fell in the range of 0.18 to 1.54 mg/kg.
For `Clc1ccc(-c2nn[se]c2-n2nnc(-c3ccccc3)n2)cc1`, the MIC in the test on Candida albicans [11] and in the test on Aspergillus niger [12] was 100 to 400 µg/mL (≈ 258 to 1030 µM) throughout.
For `O=[N+]([O-])c1ccc(OCc2cn(Cc3ccc(-c4ccccc4-c4nnn[nH]4)cc3)nn2)cc1`, the zone of inhibition at 25 µg/mL in the test with Aspergillus flavus [8], with Aspergillus fumigatus, in the test with Aspergillus niger [9] and with Candida albicans [10] was 11 to 18 mm throughout.
For `Cc1ccc(C(=O)CSc2nc3ccccc3c3nnnn23)cc1`, in the test with Candida albicans [7], the zone of inhibition at 100 µg/mL lay in the range of 6 to 22 mm.
